Laboratory results published in US4978332A, “Treatments employing vasoconstrictive substances in combination with cytotoxic agents for introduction into cellular lesion areas” (priority 1987, dated 1990).
Where a name gives a salt, the structure may show the parent alone. Read-outs that look alike come from different tables or passages of the source.

Tests used:
KHT murine fibrosarcoma = experiment: Tumor growth ratio (time to grow to 4x initial volume, treated/untreated), KHT fibrosarcoma in C3H mice; format: in vivo, mouse (C3H)
Method: (§1) The transplantable experimental murine fibrosarcomas RIF-1 or KHT were grown intradermally (2×10^5 cells injected i.d.) in the flank of 5 month old male C3H mice. When tumors reached a volume of ~100 mm^3 they were used for the studies. The cytotoxic drugs under study (all were formulated for human clinical use) were made up just prior to use in their appropriate aqueous vehicle except those experimental groups in which epinephrine-HCl (1 mg/ml) was added to the aqueous drug (usually ~10% of total volume). Drug concentrations were: adriamycin, 3.75 mg/ml: BCNU, 10 mg/ml: vinblastine, 1.2 mg/ml; and 5-fluorouracil, 30 mg/ml. The drugs were administered intraperitoneally (i.p.) or intratumorally (i.t.) in an injection volume of 0.1 ml. The tumors of the treated mice as well as untreated control tumors were measured three times per week by vernier calipers and their volumes were calculated by the formula: […]
(§2) where D1 -D3 are tumor diameters in mm. The time (days) for the tumors to grow to four times their original experimental volume was used as a parameter of treatment effectiveness.

[1] = system: RIF-1 murine fibrosarcoma
Method: The transplantable experimental murine fibrosarcomas RIF-1 or KHT were grown intradermally (2×10^5 cells injected i.d.) in the flank of 5 month old male C3H mice. When tumors reached a volume of ~100 mm^3 they were used for the studies. […] Drug concentrations were: adriamycin, 3.75 mg/ml: BCNU, 10 mg/ml: vinblastine, 1.2 mg/ml; and 5-fluorouracil, 30 mg/ml. The drugs were administered intraperitoneally (i.p.) or intratumorally (i.t.) in an injection volume of 0.1 ml. The tumors of the treated mice as well as untreated control tumors were measured three times per week by vernier calipers and their volumes were calculated by the formula:
*This ratio indicated the time it would take a treated tumor to grow to
4× its initial size, divided by the time it would take an untreated
tumor to grow to 4× its initial size.

[2] = system: murine fibrosarcomas RIF-1 or KHT; settings: epinephrine 1 mg/kg alone
Method: as §1, §2

[3] = 2 mg/kg BW i.t., Epi 1 mg/kg where combined

For CC[C@]1(O)C[C@@H]2CN(CCc3c([nH]c4ccccc34)[C@@](C(=O)OC)(c3cc4c(cc3OC)N(C)[C@H]3[C@@](O)(C(=O)OC)[C@H](OC(C)=O)[C@]5(CC)C=CCN6CC[C@]43[C@@H]65)C2)C1 [Vinblastine, vinblastine sulfate], the “Tumor Growth Ratio” value (KHT murine fibrosarcoma; 2 mg/kg BW i.p.) was 1.16, the “Tumor Growth Ratio” value (KHT murine fibrosarcoma; [3]) was 1.76 and the “Tumor Growth Ratio” value ([1]; 2 mg/kg BW i.p.) was 1.12. The “Tumor Growth Ratio” value [1, 3] was 3.01.

For COc1cccc2c1C(=O)c1c(O)c3c(c(O)c1C2=O)C[C@@](O)(C(=O)CO)C[C@@H]3O[C@H]1C[C@H](N)[C@H](O)[C@H](C)O1 [Adriamycin, doxorubicin hydrochloride], the “Tumor Growth Ratio” value ([1]; 15 mg/kg BW i.p.) was 1.63 and the “Tumor Growth Ratio” value ([1]; 15 mg/kg BW i.t., Epi 1 mg/kg where combined) was 3.04.

With CNC[C@H](O)c1ccc(O)c(O)c1 [Epinephrine, epinephrine] the “chemotherapeutic effect when used alone” value [2] was “not chemotherapeutic when used alone”.

O=c1[nH]cc(F)c(=O)[nH]1 [5-Fluorouracil, 5-fluorouracil] was tested, and the “Tumor Growth Ratio” value ([1]; 100 mg/kg BW i.p.) was 1.20 and the “Tumor Growth Ratio” value ([1]; 100 mg/kg BW i.t., Epi 1 mg/kg where combined) was 1.30.

For O=NN(CCCl)C(=O)NCCCl [BCNU (carmustine), carmustine], the “Tumor Growth Ratio” value (KHT murine fibrosarcoma; 40 mg/kg BW i.t., Epi 1 mg/kg where combined) was 2.08.
